Test results from patent US8372979B2, “Process for the production of high-purity 2,4′-dimethyl-3-piperidino-propiophenone (tolperisone), pharmaceutical compositions that contain the latter, as well as active ingredient formulations that contain tolperisone” (SANOCHEMIA Pharmazeutika AG, priority 2007, dated 2013).
“Also recorded” adds a separate entry of the source.

Key:
[1] = preclinical in vitro tests (genotoxicity); conditions: classification also based on chemical structure
[2] = storage stability of tolperisone end product (4-MMPPO formation, HPLC-MS/MS); assay type: physicochemical
Protocol: Prior art according to AT PS 413 539: The tolperisone crude product is dissolved under reflux for 30 minutes in an 85:15 mixture that consists of 2-butanone (MEK) and isopropanol. The temperature is lowered to 80° C., and the solution is hot-filtered. The solution is allowed to cool to 5° C., and it is stirred for 7 hours. The crystalline precipitate that is obtained is filtered off, washed with 2-butanone, and then dried in a vacuum at 45-85° C.
A proportion of 500 ppm of 4-MMPPO is detected by analysis using HPLC-MS/MS.
The tolperisone crude product is dissolved under reflux for 12 hours in an 85:15 mixture that consists of 2-butanone (MEK) and isopropanol and with the addition of 1% HCl and 5% citric acid. The temperature is lowered to 80° C., and the solution is hot-filtered. The solution is allowed to cool to 5° C., and it is stirred for 7 hours at 5° C. The crystalline precipitate is filtered off, washed with MEK, and then dried in a vacuum at 45° to 85° C.
By analysis using HPLC-MS/MS, a proportion of 4-MMPPO in a range of 0 ppm (not detectable) to 10 ppm is determined.

stabilizing effect of citric acid present in end product ([2]; Variant IIIa: recrystallization in MEK/IPA + 1% HCl + 5% citric acid) | 4-MMPPO values with extended storage ([2]; end product of prior-art process AT 413 539 (recrystallization MEK/IPA, no acid)) | Structure (SMILES) | genotoxic or carcinogenic actions [1]
 |  | C=C(C)C(=O)c1ccc(C)cc1 [4-MMPPO, 2-methyl-1-(4-methylphenyl)-propenone] | genotoxic or carcinogenic actions have been detected; also recorded: potentially genotoxic
a stabilizing effect could be detected | additional increasing 4-MMPPO values | Cc1ccc(C(=O)C(C)CN2CCCCC2)cc1 (stereo not drawn) [tolperisone, 2,4′-dimethyl-3-piperidino-propiophenone] | 
